Source: US7071294B1, “Tumor antigen protein art-1 and tumor antigen peptide thereof” (Green Peptide Co., Ltd., priority 1998, dated 2006)
Where no end group is shown, it is not given here.

T1: HLA-A2402 expressed on COS-7 cells transfected with a recombinant plasmid for HLA-A2402 cDNA (human, UniProt P04439-2 25-302 at identity 0.92))
T1 MHC heavy: not shown


How the values were obtained:
[1] = test system: peripheral blood lymphocytes; assay: CTL induction from peripheral blood lymphocytes by tumor antigen peptides; IFN-γ produced in response to MT-2 target cells (ELISA); type: cell-based, human; conditions: for IFN-γ in Supernatant: HLA-A24 heterozygous healthy donor lymphocytes stimulated three times with 10 μM peptide, 8×10^4 lymphocytes vs 1×10^4 MT-2 target cells, no peptide gave 3; for IFN-γ production by peptide-stimulated peripheral blood lymphocytes in response to the target cell (CTL induction): MT-2 target cells, not seen with no stimulation
Method: Using the Ficoll method, lymphocytes were separated from peripheral blood of healthy donors who were heterozygous for A24 in the HLA-A locus. The lymphocytes were placed into wells of a 24-well plate at 2×10^6 cells/well, and cultured in the lymphocyte medium. The above tumor antigen peptides were added to the culture medium at 10 μM to stimulate the peripheral blood lymphocytes. One week later, the above tumor antigen peptides were added to attain 10 μM together with about 2×10^5 cells of X-radiated (50 Gy) peripheral blood lymphocytes for the second stimulation. Additional one week later, the third stimulation was conducted in a similar manner. Cultured lymphocytes were harvested one week after the third stimulation. Using as target cells (1×10^4 cells) MT-2, which is an HLA-A2402-positive leukemia cell line expressing the tumor antigen peptide, the amount of IFN-γ in the culture medium produced by the above lymphocytes (8×10^4 cells) in response to the target cells was measured in accordance with ELISA method.

KG-CTL = assay: IFN-γ production by KG-CTL in response to HLA-A2402-transfected COS-7 cells pulsed with peptide (ELISA); type: cell-based, human; conditions: COS-7 transfected with HLA-A2402 cDNA
Method: A surgical sample taken from a patient with lung cancer was cut into small pieces, and then stirred in a culture fluid containing collagenase and DNAse to suspend cells. The cell suspension was centrifuged using Ficoll Conray solution to separate lymphocytes. The lymphocytes were cultured on 24-well plate in a culture medium consisting of 45% RPMI-1640, 45% AIM-V (GIBCO BRL), and 10% FCS supplemented with 100 U/ml interleukin-2 and 0.1 mM NEAA (GIBCO BRL) (hereinafter referred to as lymphocyte medium). During the first two days of the cultivation, an anti-CD3 antibody NU-T3 (Nichirei Corporation) was added to the culture medium at 1 μg/ml. The cultivation was continued for more than 30 days, and a CTL line that is reactive with some kinds of HLA-A24- or HLA-A2-positive cancer cell lines was established. The established CTL line was named KG-CTL and used in subsequent procedures. The reactivity of KG-CTL to each cancer cell line was examined by inoculating the cancer cell line into 96-well plate at 1×10^4, adding KG-CTL at 1×10^5/well thereto on the following day, culturing the same for additional 18 hours, and then determining amount of interferon-γ (IFN-γ) produced by KG-CTL in the recovered culture medium. Measurement of IFN-γ was conducted by enzyme immunoassay (ELISA). […] Anti-human IFN-γ rabbit polyclonal antibody as detection antibody was then allowed to bind, and after binding to an anti-rabbit immunoglobulin goat antibody labeled with […] (Amersham), the chromophore was developed using Peroxidase Chromophoric Kit T (Sumitomo Bakelite), followed by measuring absorbance at 405 nm. The absorbance was compared with that obtained with standard IFN-γ to determine the amount of IFN-γ in the sample. […] The cells were then cultured with 2×10^4 KG-CTLs for 18 hours, and the amount of IFN-γ produced by KG-CTL in the culture supernatant was determined by the ELISA method, thus identifying tumor antigen peptides.

[2] = target: T1, HLA-A2402 expressed on COS-7 cells …; assay: cell-based or functional assay

Row | Molecule | Amount of IFN-γ produced by KG-CTL in the response [2] [pg/mL] | IFN-γ in Supernatant [1] [pg/mL] | IFN-γ production by peptide-stimulated peripheral blood lymphocytes in response to the target cell (CTL induction) [1] | Reactivity of KG-CTLs compared to cells pulsed with no peptide (KG-CTL)
1 | EYCLKFTKL [188–196] |  | 147 | produced IFN-γ in response to the target cell | reacted more strongly
2 | GFDCANESVL [170–179] |  | 237 | produced IFN-γ in response to the target cell | reacted more strongly
3 | LYQAVATI [158–165] |  | 330 | produced IFN-γ in response to the target cell | reacted more strongly

More lines, main results first:

Row | Amount of IFN-γ produced by KG-CTL in the response [2] [pg/mL] | Molecule | IFN-γ in Supernatant [1] [pg/mL] | IFN-γ production by peptide-stimulated peripheral blood lymphocytes in response to the target cell (CTL induction) [1] | Reactivity of KG-CTLs compared to cells pulsed with no peptide (KG-CTL)
4 | 458 | GFDCANESVL |  |  | 
5 | 289 | LYQAVATI |  |  | 
6 | 399 | EYCLKFTKL |  |  | 
